Patent US20240140944A1, “NOVEL NAPHTHYRIDINONE DERIVATIVE HAVING INHIBITORY ACTIVITY AGAINST ECTONUCLEOTIDE PYROPHOSPHATASE-PHOSPHODIESTERASE AND USE THEREOF” (TXINNO BIOSCIENCE INC., priority 2020, published 2024)
Counter-ions that a name gives are not always drawn.

Molecular target: T1, human recombinant ENPP1 enzymes (Homo sapiens, UniProt P22413)
T1 construct: purchased R & D systems
T1 sequence (P22413 1-925): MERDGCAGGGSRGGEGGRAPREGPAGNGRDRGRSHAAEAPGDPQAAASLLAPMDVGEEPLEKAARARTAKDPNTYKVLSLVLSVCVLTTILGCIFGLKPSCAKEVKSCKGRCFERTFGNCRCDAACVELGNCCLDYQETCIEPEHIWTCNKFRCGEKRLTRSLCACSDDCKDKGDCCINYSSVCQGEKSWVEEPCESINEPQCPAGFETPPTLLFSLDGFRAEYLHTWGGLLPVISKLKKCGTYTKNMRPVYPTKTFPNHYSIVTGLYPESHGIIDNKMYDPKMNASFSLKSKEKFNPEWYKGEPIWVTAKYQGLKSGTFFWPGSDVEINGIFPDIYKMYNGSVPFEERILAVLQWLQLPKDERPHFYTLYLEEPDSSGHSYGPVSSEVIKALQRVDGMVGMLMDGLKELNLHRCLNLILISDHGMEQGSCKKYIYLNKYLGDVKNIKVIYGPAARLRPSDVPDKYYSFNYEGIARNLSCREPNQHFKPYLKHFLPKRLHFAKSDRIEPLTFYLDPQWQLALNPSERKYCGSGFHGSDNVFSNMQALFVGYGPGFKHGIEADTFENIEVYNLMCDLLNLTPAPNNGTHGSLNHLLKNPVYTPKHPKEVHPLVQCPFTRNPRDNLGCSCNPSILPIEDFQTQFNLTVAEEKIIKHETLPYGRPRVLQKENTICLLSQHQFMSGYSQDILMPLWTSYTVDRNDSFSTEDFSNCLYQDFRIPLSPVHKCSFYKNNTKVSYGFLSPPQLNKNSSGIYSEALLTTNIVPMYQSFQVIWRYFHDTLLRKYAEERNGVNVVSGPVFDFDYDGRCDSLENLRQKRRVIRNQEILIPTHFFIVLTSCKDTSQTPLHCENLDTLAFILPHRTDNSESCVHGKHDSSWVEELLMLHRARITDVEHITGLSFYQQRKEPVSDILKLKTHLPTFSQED
Test: ENPP1 Enzyme Assay with cGAMP Substrate (AMP-Glo)
Type: biochemical
Settings: human recombinant ENPP1 3 ng/reaction, cGAMP 5 μM, 37° C. 90 minutes, average of two or more tests; read-out: Enzymatic activity IC50
Method: ENPP1 hydrolyzes nucleotides or nucleotide derivatives to produce nucleoside-5′-monophosphate and pyrophosphate. In addition, ENPP1 hydrolyzes 2′,3′-cGAMP to produce 5′-adenosine monophosphate (AMP) and 5′-guanosine monophosphate (GMP). AMP produced from the reaction is measured using the AMP-Glo® kit (Promega). The AMP-Glo® kit contains two reagents. The first reagent terminates the AMP-producing enzymatic reaction, removes ATP and converts the produced AMP into ADP. The second reagent converts ADP to ATP which is used to generate luminescence in the luciferase reaction. The amount of luminescence measured is proportional to the amount of AMP produced by ENPP1.
The final reaction mixture contains 50 mM Tris (pH 8.5) buffer, 250 mM NaCl, 0.5 mM CaCl2), 1 μM ZnCl2, 5% glycerol and 1% DMSO. Serially diluted ENPP1 inhibitors (typically in the range of 10 μM to 0.5 nM) were pre-stored with human recombinant ENPP1 enzymes (R & D systems) at 3 ng/reaction and room temperature (RT) for 5 to 10 minutes. The reaction was initiated by addition of cGAMP (at a final concentration of 5 μM) and reacted at 37° C. for 90 minutes. At the end of the reaction, 10 μl of the AMP-Glo first reagent was added to stop the reaction and the result was stored at room temperature for 1 hour. After storage, 20 μl of an AMP detection solution (a mixture of AMP-Glo II reagent and Kinase-Glo at a ratio of 1:100) was added and stored at room temperature for 1 hour. Luminescence signals were measured using a Victor® plate reader (Perkin Elmer). The maximal activity control (containing enzymes and substrates in the presence of 1% DMSO; MAX) and the minimal activity control (containing substrates and 1% DMSO; MIN) were evaluated simultaneously. In each experiment, serially diluted reference ENPP1 inhibitors were tested as well. IC50, indicating % residual activity versus compound concentration was determined by fitting inhibition curves using the 3-parameter analysis of GraphPad Prism® software. Serially diluted samples of one compound were tested two or more times and an average IC50 of each compound was calculated.

SMILES	IC50 [nM]
O=c1ccc2c(Nc3cc4c(cc3F)CNCC4)ccnc2[nH]1 [Example 86, 5-((7-fluoro-1,2,3,4-tetrahydroisoquinolin-6-yl)amino)-1,8-naphthyridin-2(1H)-one dihydrochloride]	1000 to 10000
NS(=O)(=O)NCc1ccc(Nc2ccnc3[nH]c(=O)ccc23)c(Cl)c1 [Example 100, N-(3-chloro-4-((7-oxo-7,8-dihydro-1,8-naphthyridin-4-yl)amino)benzyl)sulfamide dihydrochloride]	1000 to 10000
CS(=O)(=O)NCc1cccc(-c2ccnc3c2CCC(=O)N3)c1 [Example 146, N-(3-(7-oxo-5,6,7,8-tetrahydro-1,8-naphthyridin-4-yl)benzyl)methanesulfonamide]	1000 to 10000
NS(=O)(=O)N(Cc1ccc(Nc2ccnc3[nH]c(=O)ccc23)cc1)C1CC1 [Example 99, N-cyclopropyl-N-(4-((7-oxo-7,8-dihydro-1,8-naphthyridin-4-yl)amino)benzyl)sulfamide dihydrochloride]	1000 to 10000
CC(C)(N)c1ccc(-c2ccnc3[nH]c(=O)ccc23)cc1 [Example 16, 5-(4-(2-aminopropan-2-yl)phenyl)-1,8-naphthyridin-2(1H)-one hydrochloride]	1000 to 10000
NS(=O)(=O)N1CCCc2ccc(Nc3ccnc4[nH]c(=O)ccc34)cc2C1 [Example 103, (8-((7-oxo-7,8-dihydro-1,8-naphthyridin-4-yl)amino)-1,3,4,5-tetrahydro-2 (1H)-benzo[c]azepin-2-yl)sulfamide dihydrochloride]	1000 to 10000
O=c1ccc2c(-c3ccc(CNS(=O)(=O)C4CC4)cc3)ccnc2[nH]1 [Example 71, N-(4-(7-oxo-7,8-dihydro-1,8-naphthyridin-4-yl)benzyl)cyclopropanesulfonamide]	1000 to 10000
O=c1ccc2c(N3CCC4(CCNC4)CC3)ccnc2[nH]1 [Example 117, 5-(2,8-diazaspiro[4,5]decan-8-yl)-1,8-naphthyridin-2(1H)-one hydrochloride]	1000 to 10000
Cl.Nc1ccc(F)c(-c2ccnc3[nH]c(=O)ccc23)c1 [Example 8, 5-(5-(amino-2-fluorophenyl)-1,8-naphthyridin-2(1H)-one hydrochloride]	> 10000
O=c1ccc2c(-c3ccc4c(c3)CNCC4)ccnc2[nH]1 [Example 27, 5-(1,2,3,4-tetrahydroisoquinolin-7-yl)-1,8-naphthyridin-2(1H)-one hydrochloride]	1000 to 10000
NS(=O)(=O)Nc1cccc(Nc2ccnc3[nH]c(=O)ccc23)c1 [Example 88, N-(3-((7-oxo-7,8-dihydro-1,8-naphthyridin-4-yl)amino)phenyl)sulfamide dihydrochloride]	< 1000
NC1CCN(c2ccnc3[nH]c(=O)ccc23)CC1 [Example 113, 5-(4-aminopiperidin-1-yl)-1,8-naphthyridin-2(1H)-one hydrochloride]	< 1000
CN[C@@H](C)c1ccc(-c2ccnc3[nH]c(=O)ccc23)cc1 [Example 18, (S)-5-(4-(1-(methylaminoethyl)phenyl)-1,8-naphthyridin-2(1H)-one hydrochloride]	< 1000
Cn1c(=O)ccc2c(-c3ccc(CN)cc3)ccnc21 [Example 29, 5-(4-(aminomethyl)phenyl)-1-methyl-1,8-naphthyridin-2(1H)-one hydrochloride]	1000 to 10000
CCN(Cc1ccc(-c2ccnc3[nH]c(=O)ccc23)cc1)S(N)(=O)=O [Example 51, N-ethyl-N-(4-(7-oxo-7,8-dihydro-1,8-naphthyridin-4-yl)benzyl)sulfamide hydrochloride]	< 1000
Nc1ccc(Nc2ccnc3[nH]c(=O)ccc23)cc1 [Example 81, 5-((4-aminophenyl)amino)-1,8-naphthyridin-2(1H)-one dihydrochloride]	< 1000

The next lines start with the values.

IC50 [nM]	SMILES
< 1000	NS(=O)(=O)NC1Cc2ccc(Nc3ccnc4[nH]c(=O)ccc34)cc2C1 (stereo not shown) [Example 107, N-(5-((7-oxo-7,8-dihydro-1,8-naphthyridin-4-yl)amino)-2,3-dihydro-1H-inden-2-yl)sulfamide dihydrochloride]
< 1000	NS(=O)(=O)NCc1ccc(-c2ccnc3c2CCC(=O)N3)cc1 [Example 141, N-(4-(7-oxo-5,6,7,8-tetrahydro-1,8-naphthyridin-4-yl)benzyl)sulfamide]
< 1000	NS(=O)(=O)NCc1cc(Nc2ccnc3[nH]c(=O)ccc23)ccc1F [Example 90, N-(2-fluoro-5((7-oxo-7,8-dihydro-1,8-naphthyridin-4-yl)amino)benzyl)sulfamide dihydrochloride]
< 1000	NS(=O)(=O)NCCc1ccc(F)c(Nc2ccnc3[nH]c(=O)ccc23)c1 [Example 95, N-(4-fluoro-3-((7-oxo-7,8-dihydro-1,8-naphthyridin-4-yl)amino)phenethyl)sulfamide dihydrochloride]
< 1000	O=c1ccc2c(-c3ccc4c(c3)CNC4)ccnc2[nH]1 [Example 26, 5-(isoindolin-5-yl)-1,8-naphthyridin-2(1H)-one hydrochloride]
< 1000	NS(=O)(=O)NCc1cc(F)c(-c2ccnc3[nH]c(=O)ccc23)c(F)c1 [Example 44, N-(3,5-difluoro-4-(7-oxo-7,8-dihydro-1,8-naphthyridin-4-yl)benzyl)sulfamide hydrochloride]
< 1000	NCc1ccc(-c2ccnc3c2CCC(=O)N3)cc1 [Example 133, 5-(4-(aminomethyl)phenyl)-3,4-dihydro-1,8-naphthyridin-2(1H)-one hydrochloride]
< 1000	NS(=O)(=O)NCc1ccc(F)c(Nc2ccnc3[nH]c(=O)ccc23)c1 [Example 91, N-(4-fluoro-3-((7-oxo-7,8-dihydro-1,8-naphthyridin-4-yl)amino)benzyl)sulfamide dihydrochloride]
< 1000	NCC1CCN(c2ccnc3[nH]c(=O)ccc23)CC1 [Example 114, 5-(4-(aminomethyl)piperidin-1-yl)-1,8-naphthyridin-2(1H)-one hydrochloride]
< 1000	NS(=O)(=O)NCCc1cccc(Nc2ccnc3[nH]c(=O)ccc23)c1 [Example 92, N-(3-((7-oxo-7,8-dihydro-1,8-naphthyridin-4-yl)amino)phenethyl)sulfamide dihydrochloride]
< 1000	NS(=O)(=O)N1Cc2ccc(Nc3ccnc4[nH]c(=O)ccc34)cc2C1 [Example 101, 5-((7-oxo-7,8-dihydro-1,8-naphthyridin-4-yl)amino)isoindolin-2-yl)sulfamide dihydrochloride]
< 1000	NS(=O)(=O)NCc1ccc(-c2ccnc3[nH]c(=O)ccc23)cc1 [Example 40, N-(4-(7-oxo-7,8-dihydro-1,8-naphthyridin-4-yl)benzyl)sulfamide]
< 1000	O=c1ccc2c(Nc3ccc4c(c3)CNC4)ccnc2[nH]1 [Example 84, dihydrochloride]
< 1000	NCc1ccc(Nc2ccnc3[nH]c(=O)ccc23)cc1 [Example 82, 5-((4-(aminomethyl)phenyl)amino)-1,8-naphthyridin-2(1H)-one dihydrochloride]
< 1000	CC(C)(C)OC(=O)NS(=O)(=O)NCc1ccc(-c2ccnc3[nH]c(=O)ccc23)cc1 [Example 32, tert-butyl(N-(4-(7-oxo-7,8-dihydro-1,8-naphthyridin-4-yl)benzyl)sulfamoyl)carbamate]
